The source of these data is US12319967B2, “Methods and compositions for diagnosing and treating prostate cancer based on long noncoding RNA overlapping the LCK gene that regulates prostate cancer cell growth” (University of Virginia Patent Foundation, priority 2019, dated 2025).

The test deals with HULLK. Briefly: qPCR of HULLK (LCK 3'UTR / exon 13) transcript levels in response to hormone and AR, p300 or Brd4 inhibition. The class given is cell-based, human. As to conditions: for HULLK expression in response to R1881: 1 nM R1881; for R1881-induced increase in LCK 3'UTR transcript levels: 1 nM R1881, 24 hrs. Here is the method: FIGS. 2A through 2E illustrate that HULLK is an AR-regulated lncRNA. […] LNCaP and C42 cells were transduced with two independent shRNAs to LCK and treated with 0-1 nM R1881. RNA was collected on Day 4 and LCK transcript levels were determined using LCK primers targeting the 3′UTR. […] LNCaP and C42 cells were seeded for 48 hrs, and then, treated with 1 nM R1881 in the presence or absence of 10 μM enzalutamide. RNA was collected 24 hrs after treatment and LCK transcript levels were determined by qPCR using LCK primers targeting the 3′UTR. C4-2, DU145, and PC3 cells were seeded in CSS media for 48 hrs, and then, treated with 1 nM R1881 for 16 hrs. RNA was collected and LCK transcript levels were determined using LCK primers targeting the 3′UTR. […] FIG. 2E illustrates that Brd4 inhibition reduces the hormone induction of HULLK, n=3. LNCaP, C42, or Jurkat cells were seeded for 48 hrs in the appropriate growth media, and then, treated with 1 nM R1881 in the presence or absence of 0.3 μM A-485 or 0.1 μM JQ1. RNA was collected 24 hrs after treatment and LCK transcript levels were determined by qPCR using LCK primers targeting exon 13 or 3′UTR. PSA and TMPRSS2 transcripts were determined to verify the efficacy of p300 and Brd4 inhibition.
FIGS. 7A and 7B illustrate the regulation of HULLK by the AR in breast cancer cells. […] LNCaP, MCF7, BT549, and MDA-MD-231 cells were seeded in the appropriate growth media, and whole cell lysates were collected 48 hrs later and blotted for AR21 and ERK1/2. […] MCF7, BT549, and MDA-MB-231 cells were seeded in CSS media for 48 hrs, and then, treated with 1 nM R1881 for 16 hrs. RNA was collected and LCK transcript levels were determined using LCK primers targeting the 3′UTR, n=3.
Cell Culture and Reagents. LNCaP and C4-2 cells (a gift from Dr. L. W. K. Chung) were grown in DMEM:F12 (Invitrogen) with 5% Non-Heat-Inactivated serum (Gemini) and 1% Insulin-Transferrin-Selenium-Ethanolamine (ThermoFisher). CWR22Rv1 (Rv1), VCaP, PC3 (gifts from Drs. Steven Balk, Karen Knudsen, and Chung, respectively), WMPY-1 (ATCC), MCF7, BT549 and MDA-MB-231 (gifts from Dr. Amy Bouton) were grown in DMEM (Invitrogen) with 10% Heat-Inactivated serum. DU145 (a gift from Dr. Chung), PANC1 (a gift from Dr. J. Thomas Parsons), HeLa and Jurkat cells (gifts from Dr. Tim Bender) were grown in RPMI-1640 (Invitrogen) with 10% Heat-Inactivated serum. LHS cells (a gift from Dr. William Hahn) were grown in ProstaLife Epithelial Cell Medium (Lifeline). RWPE-1 (ATCC) cells were grown in Keratinocyte-Serum-Free Media (Invitrogen). For growth and RNA experiments, phenol-red free DMEM:F12 media with 5% Charcoal-Stripped Serum (CSS) (Gemini) was used.
RNA Isolation, qPCR and ddPCR: RNA was collected using TRIzol and quantitated using a NanoDrop 2000 UV-Vis Spectrophotometer (ThermoFisher). cDNA was synthesized using Superscript IV VILO cDNA synthesis kit (Invitrogen). Quantitative real-time PCR (qPCR) was performed as previously described (17,18). Droplet digital PCR (ddPCR) was executed according to the manufacturer's protocol (Bio-Rad).
To assess whether this lncRNA is modulated by hormone, transcript levels of this lncRNA were quantified by qPCR using 3′UTR primers in LNCaP and C4-2 cells transduced in the presence of increasing concentrations of R1881 (FIG. 2A). […] This increase was inhibited in the presence of two independent LCK shRNAs in both cell lines.
This hormone regulation was confirmed by measuring transcript amounts in LNCaP and C4-2 cells treated with vehicle or R1881 in the presence or absence of the anti-androgen enzalutamide (FIG. 2B). As expected, there was an 8-fold and 12-fold R1881-induced increase in LCK 3′UTR transcript levels in LNCaP and C4-2 cells, respectively. […] Androgen deprivation influenced message levels negligibly in LNCaP cells, but decreased transcript amounts of this lncRNA by approximately 2.9-fold in C4-2 cells (FIG. 2B, C4-2 vehicle vs. media). […]
A general note: Real-time PCR tracks product formation cycle by cycle.

Turning to `C[C@]1(O)CC[C@H]2[C@@H]3CCC4=CC(=O)CCC4=C3C=C[C@@]21C` [R1881], the “R1881-induced increase in this lncRNA (HULLK)” value (AR-null DU145 and PC3 cells, 1 nM R1881, 16 hrs) is recorded as “no R1881-induced increase”. Also, the “HULLK expression in response to R1881” value is reported as “not” (BT549 or MDA-MB-231 cells) and “increases” (MCF7 cells). Moreover, the “R1881-induced increase in LCK 3'UTR transcript levels” value came out at 12 fold (C4-2 cells) and 8 fold (LNCaP cells). The “lncRNA transcripts in response to increasing concentrations of R1881” value (LNCaP and C4-2 cells, 0-1 nM R1881, 3'UTR primers) is listed as “dose-dependent increase”.
